Experimental data reported in patent publication US6359176B1, “Cationic surfactants, process for producing the same and utilization thereof” (Matsumoto Yushi-Seiyaku Co., Ltd., priority 1999, dated 2002).

How the values were obtained:
activated sludge = test: Biodegradability: degradation by microorganisms with degradation tester and closed system oxygen consumption meter; settings: 14 days biodegradability test
Method: The biodegradability of the derivatives was determined by checking the degree of degradation of those chemicals by microorganisms (procedures defined in Japanese domestic low for regulation of chemical substances and in OECD) with a degradation tester and closed system oxygen consumption meter. The test was continued for 14 days and the biodegradability data was calculated into percentage.
The 100-% degradability in the testing means that whole of a test sample has been degraded into inorganic substances such as carbon dioxide.

[1] = Determination of critical micelle concentration and surface tension of aqueous surfactant solutions; format: physicochemical; settings: pure water, 25° C.; for Surface tension γ cmc (mN/m): at cmc
Method: (§1) Determination of craft point, critical micelle concentration and surface tension
(§2) An aqueous solution of 1 weight % of a surfactant (solution with pure water) was prepared and the craft point, at which a surfactant dissolves clearly, was determined with visual inspection. And the aqueous solution of several surfactants with varied concentration was prepared with pure water and their surface tension at 25° C. was determined.

[2] = Determination of craft point (temperature at which 1 wt % surfactant dissolves clearly, visual inspection); format: physicochemical; settings: 1 weight % aqueous solution in pure water
Method: as §1, §2

CCCCCCCCCCCCCCCC[N+](C)(C)C.[Br-] [Cetyl trimethyl ammonium bromide]
Effect on activated sludge (in words) (activated sludge): inhibited the propagation of activated sludge

CCCCCCCCCCCC(=O)OCC(O)C(O)C(O)C(O)C[N+](C)(C)C.[Cl-] (stereo not drawn) [Monolaurate derivative]
Critical micelle concentration cmc [1]: 0.0012 mol/L | Surface tension γ cmc (mN/m) [1]: 30.2 mN/m | Craft point (1 wt %, ° C.) [2]: <0 °C

CCCCCCCCCCCCCC(=O)OCC(O)C(O)C(O)C(O)C[N+](C)(C)C.[I-] (stereo not drawn) [Monomyristate derivative]
Critical micelle concentration cmc [1]: 0.00034 mol/L | Surface tension γ cmc (mN/m) [1]: 34.2 mN/m | Craft point (1 wt %, ° C.) [2]: <0 °C

CCCCCCCCCCCCCCCC(=O)OCC(O)C(O)C(O)C(O)C[N+](C)(C)C.[Cl-] (stereo not drawn) [Monopalmitate derivative]
Craft point (1 wt %, ° C.) [2]: 33.5 °C

CCCCCCCCCCCCCCCCCC(=O)OCC(O)C(O)C(O)C(O)C[N+](C)(C)C.[I-] (stereo not drawn) [Monostearate derivative]
Craft point (1 wt %, ° C.) [2]: 40.5 °C
